Patent US9499811B2, “Ligation enhancement” (New England Biolabs, Inc., priority 2011, dated 2016)

How the values were obtained:
[1] = target: T1, T4 DNA ligase (Enterobacteria phage T4, UniProt P00970); test: Ligation of one, two or three pUC19 fragments with single-base overhangs, transformation and gel analysis; assay type: biochemical; set-up: purchased NEB (New England Biolabs), Ipswich, Mass. #M0202; conditions: for Ligation/Subsequent Transformation Enhancement: 12% 1,2-PrD vs none; for Transformation Efficiency +1,2-PrD / Resultant Colonies +1,2-PrD: 12% 1,2-PrD; for Resultant Colonies +1,2-PrD: 20 pg DNA plated
T1 sequence (P00970 1-487): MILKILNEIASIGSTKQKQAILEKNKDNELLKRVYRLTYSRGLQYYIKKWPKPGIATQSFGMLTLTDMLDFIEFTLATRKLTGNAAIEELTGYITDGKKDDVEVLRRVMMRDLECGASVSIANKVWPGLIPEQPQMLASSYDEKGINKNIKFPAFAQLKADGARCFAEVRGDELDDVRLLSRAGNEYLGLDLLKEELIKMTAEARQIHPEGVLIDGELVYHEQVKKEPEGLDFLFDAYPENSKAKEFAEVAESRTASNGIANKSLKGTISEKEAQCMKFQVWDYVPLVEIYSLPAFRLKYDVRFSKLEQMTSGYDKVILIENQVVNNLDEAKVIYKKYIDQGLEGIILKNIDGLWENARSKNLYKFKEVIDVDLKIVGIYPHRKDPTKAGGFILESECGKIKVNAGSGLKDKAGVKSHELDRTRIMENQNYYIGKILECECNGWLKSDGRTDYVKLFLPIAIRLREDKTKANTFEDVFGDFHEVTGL
Method: FIGS. 4A-C show agarose gel electrophoresis analysis of ligation products achieved using +/−12% 1,2-PrD for one, two and three pUC19 fragment sets as described in FIGS. 3A-C. The marker lane indicated by M corresponds to 1 μg of a 2-log DNA ladder, New England Biolabs, Inc. (NEB), Ipswich, Mass., #3200. (1) is a 2686-bp linear AhdI-pUC19 fragment; (2) are 1527-bp and 1159-bp BciVI fragments; (3) are 2 lengths (2275-bp and 287-bp) of 3 BccI fragments where the third 124-bp fragment is not visible on the gel; (4) is a linearized intermediate ligation product formed by 2275-bp and 287-bp BccI fragments; (5) is the desired ligated/circularized plasmid which is a highly transformable desired product; and (6) are different kinds of linear and circular undesired concatameric ligation products which are not highly transformable.
(§1) For chemically competent cell transformations, the cell-DNA mixture was incubated on ice for 30 min, heat-shocked at 42° C. for 30 sec, then returned to ice for 5 min. A volume of 950 μl SOC medium (2% vegetable peptone or Tryptone, 0.5% yeast extract, 10 mM NaCl, 2.5 mM KCl, 10 mM MgCl2, 10 mM MgSO4 and 20 mM glucose) was added to the cell-DNA mixture, followed by a one hr 37° C. outgrowth period with agitation. A volume of 25-50 μl of appropriately diluted cells in SOC was spread onto Rich Agar plates (composition per liter: 10 g soy peptone, 5 g yeast extract, 10 g NaCl, 1 g MgCl2-6H2O, 1 g dextrose, 15 grams agar) supplemented with 100 μg/ml ampicillin. Plates were inverted and incubated for 16 hrs at 37° C., followed by quantification of total colony numbers.
Single fragment ligation (recircularization), two fragment ligation (cloning) and three fragment ligation (assembly) reactions were performed in the presence of 1,2-PrD (see FIGS. 3A-C). Restriction digests of pUC19 plasmid constructs were performed to completion by monitoring the reactions using 1% agarose gel electrophoresis. Upon completion all restriction enzymes were heat-inactivated by incubating the reaction for 20 min at 65° C. The DNA was purified by use of QiaQuick® (Qiagen, Valencia, Calif.) spin columns and quantified by comparison to known DNA standards by 1% agarose gel electrophoresis. […] Ligation reactions were performed as described in FIGS. 3A-C using 100 ng of DNA that had been restricted by AhdI, BciVI or BccI to leave a variety of single-base overhangs. From each 21 μl ligation reaction, 2 μl was used for transformation as analyzed in Table 4 and 19 μl was run on a 1% agarose gel prepared with tris-borate as described in FIGS. 4A-C. […] This is the highly transformable DNA circularized form.
The ligations took place with and without 12% 1,2-PrD present for 10 min at room temperature (25° C.) with 2000 units T4 DNA ligase. A volume of 2 μl from each ligation reaction was transformed into chemically competent DH5 alpha cells as described in Example 1. A volume of 40 μl of a 1:20 dilution of the outgrowth in SOC medium was plated on medium Rich Agar plates supplemented with ampicillin. This volume corresponded to 20 pg of DNA from the original ligation reaction.

[2] = target: T1, T4 DNA ligase; test: Cloning of inserts with single-base 3'A overhangs into Qiagen cloning vector, ligation and subsequent transformation; assay type: biochemical; set-up: purchased NEB (New England Biolabs), Ipswich, Mass. #M0202; conditions: 6% 1,2-PrD
Method: This test used a commercially available cloning vector from Qiagen, Valencia, Calif. (#231124) specifically designed to clone DNA fragments with single-base 3′A overhangs.
The reaction mixtures contained DNA at 50-100 ng and 1,2-PrD at different concentrations. 1 μl of regular concentration (NEB, Ipswich, Mass., #M0202; 400 units) or 1 μl of high concentration T4 DNA ligase (NEB, Ipswich, Mass., #M0202; 2000 units) was then added to a final volume of 21 μl in 1×T4 DNA Ligase Buffer (NEB, Ipwich, Mass., #B0202) or 1× Quick Ligase™ Buffer (NEB, Ipswich, Mass., #B2200).
Ligation reactions were incubated for 10 min at room temperature (25° C.) unless otherwise stated, then placed on ice for 2 min. In some experiments the ligase was heat-killed by incubation at 65° C. for 20 min. The ligation reactions were analyzed by 1% agarose gel electrophoresis to identify DNA species and determine the efficiency of […].
A volume of 2 μl from each ligation reaction was incubated with 50 μl of chemically competent (NEB, Ipswich, Mass., #C2987I) or electrocompetent (NEB, Ipswich, Mass., #C2989K) DH5 alpha E. coli cells.
as §1
For electrocompetent cell transformation protocols, the cell-DNA mixture was subjected to electroporation, immediately followed by the addition of 950 μl of pre-warmed 37° C. SOC medium, followed by a one hour 37° C. outgrowth period with agitation. Dilution, plating, incubation and colony quantification were performed as described in Example 1A above.

[3] = 1 fragment (AhdI-linearized pUC19)
[4] = insert 68mer cassette featuring No 5' PO4, 3' A overhang
[5] = insert 513 pb human genomic amplicon using Taq DNA polymerase

## CC(O)CO (stereo not drawn) [1,2-PrD, 1,2-propanediol]
[1]; [3]
  Ligation/Subsequent Transformation Enhancement: 12-fold
  Transformation Efficiency +1,2-PrD: 51.4 × 10e^6/μg DNA
[1]; 2 fragments (BciVI-pUC19)
  Ligation/Subsequent Transformation Enhancement: At least 35-fold
  Transformation Efficiency +1,2-PrD: 1.8 × 10e^6/μg DNA
  Resultant Colonies +1,2-PrD: 35
[1]; 3 fragments (BccI-pUC19)
  Ligation/Subsequent Transformation Enhancement: 18-fold
  Transformation Efficiency +1,2-PrD: 1.85 × 10e^6/μg DNA
  Resultant Colonies +1,2-PrD: 37
[1]; 1 fragment (AhdI-linearized pUC19), 2000 units T4 DNA ligase, 10 min 25 C
  Resultant Colonies +1,2-PrD: 1027
[1]; +/-12% 1,2-PrD, one, two and three pUC19 fragment sets (FIGS. 4A-C)
  Amount of ligated circularized plasmid on agarose gel: significant beneficial effect on the amount of ligated circularized plasmid
[2]; [4]
  Cloning Enhancement (chemical transformation): 14-fold
  Cloning Enhancement (electroporation): 2-fold
[2]; [5]
  Cloning Enhancement (chemical transformation): At least 72-fold
  Cloning Enhancement (electroporation): 11-fold
[2]; insert 513 pb human genomic amplicon, 0 colonies without enhancer
  Colonies (chemical transformation): 72 colonies)
